Activity calls are given as the source filed them. The rule behind the calls is not given here.
Tests used:
[1] = target: C-C chemokine receptor type 2 (Homo sapiens, UniProt P41597)
Description: Displacement of [125I]MCP1 from CCR2 in human PBMC measured after 30 mins

[2] = Stability in human liver microsomes assessed as parent compound remaining at 3 uM measured after 10 mins; type: ADME, Microsome; conditions: read-out: Stability
[3] = Oral bioavailability in mouse; type: ADME, organism-based; conditions: in vivo
[4] = target: T1, C-C chemokine receptor type 5 (Homo sapiens, UniProt P51681)
Description: Antagonist activity at CCR5 (unknown origin) expressed in human HT1080 cells assessed as blockade of MIP1beta-binding to receptor

[5] = Drug metabolism in human liver microsomes assessed as rate of disappearance at 3 uM; type: ADME, Microsome
[6] = Clearance in iv dosed mouse; type: ADME, organism-based; conditions: in vivo
[7] = Permeability of the compound at pH 7.4 by PAMPA; type: ADME; conditions: read-out: permeability
hERG (KCNH2) [8] = target: T2, hERG (KCNH2) (Homo sapiens, UniProt Q12809); experiment: in vitro
Description: Inhibition of human ERG at 10 uM by manual patch-clamp assay relative to control

hERG (KCNH2) [9] = target: T2, hERG (KCNH2); experiment: Inhibition of human ERG at 30 uM by manual patch-clamp assay relative to control
[10] = Half life in iv dosed cynomolgus monkey; conditions: in vivo
[11] = Half life in iv dosed rat; conditions: in vivo
[12] = Oral bioavailability in cynomolgus monkey; conditions: in vivo
[13] = Cardiotoxicity in telemetered monkey assessed as changes in QTc interval at 30 mg/kg; type: toxicity, organism-based, Macaca mulatta; conditions: rhesus monkey, in vivo
[14] = target: T1, C-C chemokine receptor type 5; experiment: Binding affinity to CCR5 in T-cell (unknown origin)
[15] = Toxicity in monkey administered as single dose; parameters: species or system Macaca mulatta; conditions: rhesus monkey, in vivo
Mus musculus = experiment: Protection against C57BL/6-SVJ12 mouse model of thioglycollate-induced peritonitis administered orally 1 hr prior to thioglycollate-stimulation for 48 hrs and subsequent bid dosing for 3 days following 1 hr thioglycollate-stimulation measured by Wright-Giemsa Staining based flow cytometry; type: functional, organism-based
[16] = Toxicity in rat administered as single dose; conditions: in vivo
[17] = Toxicity in rat measured after 14 days; conditions: in vivo, 336 h
Cynomolgus monkey = experiment: In vivo antagonist activity at CCR2 in po dosed cynomolgus monkey assessed as inhibition of MCP1-induced chemotaxis administered once daily for three days followed by MCP1 stimulation and measured after 18 hrs; type: functional, organism-based; conditions: Macaca fascicularis

Sequence of C-C chemokine receptor type 2 (P41597 whole entry): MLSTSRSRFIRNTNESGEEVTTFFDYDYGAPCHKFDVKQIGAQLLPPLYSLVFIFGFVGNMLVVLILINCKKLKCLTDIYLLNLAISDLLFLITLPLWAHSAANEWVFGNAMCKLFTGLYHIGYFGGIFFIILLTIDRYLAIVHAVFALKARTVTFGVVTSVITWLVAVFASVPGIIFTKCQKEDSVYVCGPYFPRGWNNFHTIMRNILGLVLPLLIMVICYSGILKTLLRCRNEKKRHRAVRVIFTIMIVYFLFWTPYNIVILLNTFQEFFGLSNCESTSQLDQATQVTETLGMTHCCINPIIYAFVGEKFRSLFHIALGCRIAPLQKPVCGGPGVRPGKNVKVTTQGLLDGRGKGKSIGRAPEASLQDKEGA
T2 sequence (Q12809 whole entry): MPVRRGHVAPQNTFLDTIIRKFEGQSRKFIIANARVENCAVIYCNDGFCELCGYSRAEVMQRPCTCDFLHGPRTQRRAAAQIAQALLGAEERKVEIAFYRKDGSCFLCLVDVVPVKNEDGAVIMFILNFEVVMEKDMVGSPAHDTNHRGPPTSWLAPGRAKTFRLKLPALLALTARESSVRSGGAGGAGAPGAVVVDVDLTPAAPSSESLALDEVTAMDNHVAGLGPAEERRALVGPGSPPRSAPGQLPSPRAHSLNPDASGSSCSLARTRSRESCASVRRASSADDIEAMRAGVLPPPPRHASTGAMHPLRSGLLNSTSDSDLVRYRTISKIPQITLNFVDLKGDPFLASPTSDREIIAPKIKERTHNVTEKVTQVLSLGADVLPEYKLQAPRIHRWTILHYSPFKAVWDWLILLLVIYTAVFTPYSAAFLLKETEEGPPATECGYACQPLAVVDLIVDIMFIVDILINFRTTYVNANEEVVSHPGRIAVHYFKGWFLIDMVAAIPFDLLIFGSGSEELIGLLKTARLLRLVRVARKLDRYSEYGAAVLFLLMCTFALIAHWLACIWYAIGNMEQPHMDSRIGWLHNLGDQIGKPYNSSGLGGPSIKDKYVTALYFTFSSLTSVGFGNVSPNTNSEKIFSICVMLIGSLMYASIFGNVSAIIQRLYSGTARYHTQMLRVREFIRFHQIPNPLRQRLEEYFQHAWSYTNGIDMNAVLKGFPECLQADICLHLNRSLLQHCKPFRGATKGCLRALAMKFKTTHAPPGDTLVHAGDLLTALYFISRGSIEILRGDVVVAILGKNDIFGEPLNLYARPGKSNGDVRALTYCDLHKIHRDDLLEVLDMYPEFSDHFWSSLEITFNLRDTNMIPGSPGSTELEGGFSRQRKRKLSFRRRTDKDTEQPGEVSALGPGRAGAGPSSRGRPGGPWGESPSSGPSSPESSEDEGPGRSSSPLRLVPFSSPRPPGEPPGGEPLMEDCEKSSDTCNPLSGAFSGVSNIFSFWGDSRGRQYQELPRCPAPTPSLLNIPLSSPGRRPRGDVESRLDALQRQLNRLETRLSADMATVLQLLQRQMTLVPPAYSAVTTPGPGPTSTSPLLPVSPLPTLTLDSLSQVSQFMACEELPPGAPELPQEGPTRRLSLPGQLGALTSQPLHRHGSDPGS
T1 sequence (P51681 whole entry): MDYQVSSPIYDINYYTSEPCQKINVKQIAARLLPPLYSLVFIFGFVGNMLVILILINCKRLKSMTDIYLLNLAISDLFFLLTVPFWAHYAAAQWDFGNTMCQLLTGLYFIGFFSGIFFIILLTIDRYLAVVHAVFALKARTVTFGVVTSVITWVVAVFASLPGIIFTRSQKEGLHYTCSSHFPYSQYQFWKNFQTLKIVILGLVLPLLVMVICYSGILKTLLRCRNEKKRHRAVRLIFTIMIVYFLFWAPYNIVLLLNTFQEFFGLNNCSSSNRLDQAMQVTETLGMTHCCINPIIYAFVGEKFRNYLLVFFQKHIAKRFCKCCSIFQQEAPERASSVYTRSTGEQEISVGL

IC50 [1] | remaining at 10 min, 3 µM [2] | bioavailability [3] | IC50 [4] | Drug metabolism [5] | clearance [6] | Papp [7] | half-life [10] | half-life [11] | bioavailability [12] | Kd [14] | Compound | inhibition at 10 µM (hERG (KCNH2) [8]) | inhibition at 30 µM (hERG (KCNH2) [9]) | Activity [13] | Activity [15] | Activity (Mus musculus) | Activity [16] | Activity [17] | inhibition (Cynomolgus monkey)
0.0014 µM | 100% | 11% | 1.57 µM | 0 nmol/min | 67 mL/min/kg | 6.5 ×10⁻⁶ cm/s |  |  |  |  | CC(C)N(C)[C@@H]1CC[C@H](N2CC[C@H](NC(=O)c3cccc(C(F)(F)F)c3)C2=O)[C@H](N(C)S(C)(=O)=O)C1 | 7% |  |  |  |  |  |  | 
0.0004 µM | 58% |  | 0.287 µM | 0.13 nmol/min |  | 39.4 ×10⁻⁶ cm/s |  |  |  |  | CC(C)N(C)[C@@H]1CC[C@H](N2CC[C@H](Nc3ncnc4ccc(C(F)(F)F)cc34)C2=O)[C@H](NS(C)(=O)=O)C1 [BMS-741672] | 74% |  |  |  |  |  |  | 
0.0009 µM | 99% |  | 0.19 µM | 0 nmol/min |  | 1.4 ×10⁻⁶ cm/s |  |  |  |  | CC(C)N(C)[C@@H]1CC[C@H](N2CC[C@H](Nc3ncnc4ccc(C(F)(F)F)cc34)C2=O)[C@H](CS(C)(=O)=O)C1 |  | 16% |  |  |  |  |  | 
 | 100% |  | 1.64 µM | 0 nmol/min | 70 mL/min/kg | 9.4 ×10⁻⁶ cm/s |  |  |  |  | CC(C)N(C)[C@@H]1CC[C@H](N2CC[C@H](NC(=O)c3cccc(C(F)(F)F)c3)C2=O)[C@H](CS(C)(=O)=O)C1 |  |  |  |  |  |  |  | 
0.0019 µM | 85% | 35% | 3.47 µM | 0.05 nmol/min | 258 mL/min/kg | 59.3 ×10⁻⁶ cm/s |  |  |  |  | CC(C)N(C)[C@@H]1CC[C@H](N2CC[C@H](NC(=O)c3cccc(C(F)(F)F)c3)C2=O)[C@H](NS(C)(=O)=O)C1 |  |  |  |  |  |  |  | 
 | 95% | 28% | 0.78 µM | 0.01 nmol/min | 38 mL/min/kg |  | 3.2 h | 5.1 h | 46% | 0.0236 µM | CC(=O)N[C@@H]1C[C@H](N(C)C(C)C)CC[C@@H]1N1CC[C@H](Nc2ncnc3ccc(C(F)(F)F)cc23)C1=O | 33% |  | Non-Toxic | Non-Toxic | Active | Non-Toxic | Non-Toxic | Active
 | 100% |  |  | 0 nmol/min |  | 52.9 ×10⁻⁶ cm/s |  |  |  |  | CCC[C@@H]1C[C@H](N(C)C(C)C)CC[C@@H]1N1CC[C@H](Nc2ncnc3ccc(C(F)(F)F)cc23)C1=O |  |  |  |  |  |  |  | 
